Positions count from the first letter of the chain named. Several values for one entry are separate records, joined by “and”; a condition that tells them apart may be missing. Equal entries are not always repeated. Where two headings read alike, the source gives them in different places.
Columns and labels:
Type in all cases: biochemical
human SHP2-FL S189A = target: T1, human SHP2-FL S189A (Homo sapiens, UniProt Q06124, S189A); experiment: SHP2 allosteric inhibition assay (DiFMUP), S189A
T1 sequence (Q06124 1-593 S189A): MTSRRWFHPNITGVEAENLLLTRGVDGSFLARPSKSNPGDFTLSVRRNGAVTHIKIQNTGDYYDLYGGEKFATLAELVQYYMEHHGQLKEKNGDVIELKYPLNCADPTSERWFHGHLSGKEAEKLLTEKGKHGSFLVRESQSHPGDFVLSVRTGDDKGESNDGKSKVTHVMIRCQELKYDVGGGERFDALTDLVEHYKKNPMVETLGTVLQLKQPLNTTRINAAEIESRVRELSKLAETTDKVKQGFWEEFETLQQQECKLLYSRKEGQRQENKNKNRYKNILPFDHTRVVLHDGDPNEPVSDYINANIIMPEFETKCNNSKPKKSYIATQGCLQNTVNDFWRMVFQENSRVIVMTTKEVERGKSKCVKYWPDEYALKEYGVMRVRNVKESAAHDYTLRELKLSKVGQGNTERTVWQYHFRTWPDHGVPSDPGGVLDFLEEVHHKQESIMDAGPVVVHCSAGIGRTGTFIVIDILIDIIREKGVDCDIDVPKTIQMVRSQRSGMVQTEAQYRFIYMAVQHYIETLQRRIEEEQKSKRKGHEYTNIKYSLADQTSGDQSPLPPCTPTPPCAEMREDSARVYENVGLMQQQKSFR
Experimental: (§1) Full-length SHP2 is allosterically activated through binding of bis-tyrosyl-phorphorylated peptides to its Src Homology 2 (SH2) domains. The latter activation step leads to the release of the auto-inhibitory interface of SHP2, which in turn renders the SHP2 protein tyrosine phosphatase (PTP) active and available for substrate recognition and reaction catalysis. The catalytic activity of SHP2 was monitored using the surrogate substrate DiFMUP in a prompt fluorescence assay format.
(§2) […] […] 50 μl stop solution (0.1 mM sodium pervanadate) was added to each well, the plate was shaken briefly to mix, and read in endpoint mode on a SpectraMax M5 plate reader (Molecular Devices) using excitation and emission wavelengths of 340 nm and 450 nm. Data was imported into GraphPad Prism. Plots of fluorescence intensity vs. log Molar [compound] were created and modeled with a 3-parameter sigmoidal concentration response equation in order to estimate IC50.
(§3) Reactions were then allowed to proceed for 30 minutes and stopped by the addition of a phosphatase inhibitor, sodium pervanadate. De-phosphorylation of DiFMUP results in production of a fluorescent product. Product fluorescence was determined and plotted as a function of compound concentration in order to determine the IC50 for each compound on each mutant using a four parameter sigmoidal dose response function in Prism (GraphPad).
(§4) NsCs mimics the role of the cytosolic domain of a protein tyrosine kinase in this model system.

human SHP2-FL L262R = target: T2, human SHP2-FL L262R (Homo sapiens, UniProt Q06124, L262R); experiment: SHP2 allosteric inhibition assay (DiFMUP), L262R
T2 sequence (Q06124 1-593 L262R): T1 sequence (Q06124 1-593 S189A) with A189S, L262R
Experimental: as §1, §2, §3, §4

human SHP2-FL E76K = target: T3, human SHP2-FL E76K (Homo sapiens, UniProt Q06124, E76K); experiment: SHP2 allosteric inhibition assay (DiFMUP), E76K; settings: for IC50: SHP2 E76K
T3 sequence (Q06124 1-593 E76K): T1 sequence (Q06124 1-593 S189A) with E76K, A189S
Excerpt: as §1
Diluted inhibitor (5 μL) was mixed with activated enzyme (25 μl) and incubated for 30 minutes at room temperature. […] 50 μl stop solution (0.1 mM sodium pervanadate) was added to each well, the plate was shaken briefly to mix, and read in endpoint mode on a SpectraMax M5 plate reader (Molecular Devices) using excitation and emission wavelengths of 340 nm and 450 nm. Data was imported into GraphPad Prism. Plots of fluorescence intensity vs. log Molar [compound] were created and modeled with a 3-parameter sigmoidal concentration response equation in order to estimate IC50.
as §3, §4

Row | Compound | IC50 (human SHP2-FL S189A; IC50 (nM), SHP2 S189A 0.5 μM NsCs peptide (Activated), human SHP2-FL S189A, 0.5 μM NsCs peptide (activated)) | IC50 (human SHP2-FL S189A; human SHP2-FL S189A alone, no peptide (non-activated), read-out: IC50 (nM), SHP2 S189A No Peptide Control (Non-Activated)) | IC50 (human SHP2-FL S189A; human SHP2-FL S189A alone, no peptide (non-activated), read-out: pIC50, SHP2 S189A No Peptide Control (Non-Activated) (converted)) | IC50 (human SHP2-FL S189A; pIC50, SHP2 S189A 0.5 μM NsCs peptide (Activated), human SHP2-FL S189A, 0.5 μM NsCs peptide (activated)) | IC50 (human SHP2-FL L262R; IC50 (nM), SHP2 L262R 0.5 μM NsCs peptide (Activated), human SHP2-FL L262R, 0.5 μM NsCs peptide (activated)) | IC50 (human SHP2-FL L262R; human SHP2-FL L262R alone, no peptide (non-activated), read-out: IC50 (nM), SHP2 L262R No Peptide Control (Non-Activated)) | IC50 (human SHP2-FL L262R; human SHP2-FL L262R alone, no peptide (non-activated), read-out: pIC50, SHP2 L262R No Peptide Control (Non-Activated) (converted)) | IC50 (human SHP2-FL L262R; pIC50, SHP2 L262R 0.5 μM NsCs peptide (Activated), human SHP2-FL L262R, 0.5 μM NsCs peptide (activated)) | IC50 (human SHP2-FL E76K; 0.5 μM NsCs peptide (Activated), read-out: IC50) | IC50 (human SHP2-FL E76K; No Peptide Control (Non-Activated), read-out: pIC50 (converted)) | Biochemical sensitivity (human SHP2-FL S189A; Variant S189A) | Biochemical sensitivity (human SHP2-FL L262R; Variant L262R) | Biochemical sensitivity (human SHP2-FL E76K; Variant E76K)
1 | Nc1nc(N2CCC3(CCC[C@H]3N)CC2)cnc1Sc1ccnc(Cl)c1Cl [Compound 1] | 3.38 nM and 3.76 nM and 2.99 nM and 3.79 nM | 3.01 nM and 3.35 nM and 2.75 nM and 3.11 nM | 3.02 nM and 3.31 nM and 2.75 nM and 3.09 nM | 3.39 nM and 3.72 nM and 3.02 nM and 3.8 nM | 79.4 nM and 62.2 nM and 69.2 nM and 74.6 nM | 2.83 nM and 3.37 nM and 2.75 nM and 3.43 nM | 2.82 nM and 3.39 nM and 2.75 nM | 79.4 nM and 61.7 nM and 69.2 nM and 74.1 nM | > 10000 nM and 13100 nM and 10400 nM | 53.7 nM and 58.9 nM and 50.1 nM |  |  | 
2 | Cc1nc(N2CCC3(CC2)CO[C@@H](C)[C@H]3N)c(CO)nc1-c1cccc(Cl)c1Cl [Compound B] |  |  |  |  |  |  |  |  |  |  | yes (Sensitive if IC50 < 2000 nM) | yes (Sensitive if IC50 < 2000 nM) | no (Sensitive if IC50 < 2000 nM)

— patent US20210154190A1, “SHP2 INHIBITOR COMPOSITIONS AND METHODS FOR TREATING CANCER” (Revolution Medicines, Inc., priority 2018, published 2021)
